Test results from patent US20120122908A1, “Novel C-4 Substituted Retinoids” (University of Maryland, priority 2000, published 2012).
Where two headings read alike, the source gives them in different places.

Key:
RARα = target: T1, RARα (Homo sapiens, UniProt P10276); test: Competitive [3H]ATRA binding to recombinant RARα; details: for binding to RARα: concentrations up to 500 nM
T1 construct: Recombinant full-length RAR proteins were expressed as S-Tag fusion proteins in BL21 E. coli cells; S-Tag; made in house; host or cells: E. coli BL21
T1 sequence (P10276 1-462): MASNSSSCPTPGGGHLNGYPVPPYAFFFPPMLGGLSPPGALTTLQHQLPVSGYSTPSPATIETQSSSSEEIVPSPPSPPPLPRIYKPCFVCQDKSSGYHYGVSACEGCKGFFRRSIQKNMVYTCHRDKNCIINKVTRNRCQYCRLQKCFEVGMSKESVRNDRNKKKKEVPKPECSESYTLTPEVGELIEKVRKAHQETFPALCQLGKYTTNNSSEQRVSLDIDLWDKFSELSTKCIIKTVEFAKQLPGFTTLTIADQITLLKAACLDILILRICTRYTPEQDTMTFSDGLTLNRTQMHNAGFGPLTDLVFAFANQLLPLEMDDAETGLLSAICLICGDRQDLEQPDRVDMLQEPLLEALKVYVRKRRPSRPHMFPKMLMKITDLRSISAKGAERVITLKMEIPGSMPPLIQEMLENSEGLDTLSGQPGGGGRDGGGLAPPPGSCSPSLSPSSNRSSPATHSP
Excerpt: (§1) Because the novel compounds are retinoid-related analogs, they bind to the retinoid receptors in vivo and thus have increased therapeutic potentials. Similar to ATRA, these novel compounds act as a ligand for the retinoic acid receptors (RARs, α, β, and γ) but not the retinoid X receptors (RXRs, α, β, and γ). […] (Nervi C, Grippo J F, Sherman M I, George M D, Jetten A M, Identification and characterization of nuclear retinoic acid-binding activity inhuman myeloblastic leukemia HL-60 cells, Proc Natl Acad Sci USA 86: 5854-5858, 1989) The dissociation constants for the inhibitors is determined by the well described charcoal absorption method (Yang N, Schule R, Mangelsdorf D J, Evans R M, Characterization of DNA binding and retinoic acid binding properties of retinoic acid receptor, Proc Natl Acad Sci USA 88: 3559-3663, 1991). Briefly, serial dilutions of the novel compounds (10^−11 to 10^−5 M) in dimethyl sulfoxide, 100 μL each is used. 12 mg of crude cytosolic extracts is prepared from pET15b (Novagen, Madison, Wis.)/hRAR-α, -β, and -γ prepared protein is used for each data point. All reactions are conducted in binding buffer (60 mM Na imidazole, 500 mM NaCl, 20 mM Tris, pH 7.9) for 14-16 hours at 4° C. in a final volume of 1 mL. Unbound [^3H]ATRA is removed by addition of 0.5 mL of equivalent-sized dextran-treated charcoal (final concentration 3% [wt/vol]) for 15 minutes at 4° C. […]
(§2) Since the RAMBAs are retinoic acid analogs, it is possible that some of the compounds may bind to retinoid receptors and function as either transcriptional agonists/antagonists or may display anti AP-1 activity (Chambon P, A decade of molecular biology of retinoic acid, FASEB J 10: 5899-5904, 19962. The ability of three RAMBAs, VN/14-1, VN/50A-1 and VN/66-1 to bind to the individual RAR receptors was thus evaluated in vitro. Recombinant full-length RAR proteins were expressed as S-Tag fusion proteins in BL21 E. coli cells used for competitive binding assays. Each competition-binding assay contained 1 nM [^3H] […]

RARγ = target: T2, RARγ (Homo sapiens, UniProt P13631); test: Competitive [3H]ATRA binding to recombinant RARγ; details: for binding to RARγ: concentrations up to 500 nM
T2 construct: Recombinant full-length RAR proteins were expressed as S-Tag fusion proteins in BL21 E. coli cells; S-Tag; made in house; host or cells: E. coli BL21
T2 sequence (P13631 1-454): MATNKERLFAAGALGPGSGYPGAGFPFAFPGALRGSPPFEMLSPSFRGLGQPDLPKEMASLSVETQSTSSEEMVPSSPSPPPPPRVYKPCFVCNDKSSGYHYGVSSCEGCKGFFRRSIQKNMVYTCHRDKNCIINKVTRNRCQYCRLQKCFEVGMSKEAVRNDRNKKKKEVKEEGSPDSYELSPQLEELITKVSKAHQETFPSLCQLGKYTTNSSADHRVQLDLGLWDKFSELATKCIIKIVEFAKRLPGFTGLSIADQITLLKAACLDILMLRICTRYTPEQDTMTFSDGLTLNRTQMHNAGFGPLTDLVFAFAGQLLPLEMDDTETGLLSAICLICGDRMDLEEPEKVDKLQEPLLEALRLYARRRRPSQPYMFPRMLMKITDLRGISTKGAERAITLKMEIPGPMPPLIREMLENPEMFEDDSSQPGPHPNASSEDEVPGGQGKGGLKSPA
Excerpt: as §1, §2

RAR ? = target: T3, RAR ? (Homo sapiens, UniProt P10826); test: Competitive [3H]ATRA binding to recombinant RAR (third subtype); details: for binding to RAR (third subtype): concentrations up to 500 nM
T3 construct: Recombinant full-length RAR proteins were expressed as S-Tag fusion proteins in BL21 E. coli cells; S-Tag; made in house; host or cells: E. coli BL21
T3 sequence (P10826 1-455): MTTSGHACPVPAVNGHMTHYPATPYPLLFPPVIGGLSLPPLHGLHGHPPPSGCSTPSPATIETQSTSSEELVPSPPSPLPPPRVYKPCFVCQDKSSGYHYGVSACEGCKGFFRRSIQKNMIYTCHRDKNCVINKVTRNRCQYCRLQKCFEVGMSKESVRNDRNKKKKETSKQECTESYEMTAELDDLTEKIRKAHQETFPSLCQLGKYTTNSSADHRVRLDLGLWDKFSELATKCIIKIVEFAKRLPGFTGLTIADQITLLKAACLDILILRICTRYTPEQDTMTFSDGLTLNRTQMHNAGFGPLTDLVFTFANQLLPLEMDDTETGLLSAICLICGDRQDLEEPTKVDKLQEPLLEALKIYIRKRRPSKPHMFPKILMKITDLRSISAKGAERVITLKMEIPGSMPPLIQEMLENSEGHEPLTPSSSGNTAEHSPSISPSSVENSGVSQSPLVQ
Excerpt: as §1, §2

[1] = Pharmacokinetic studies in mice (plasma levels by HPLC); type: in vivo
Experimental: FIG. 18: Plasma Levels in Balb/c Mice Following Dose of 10 mg/kg body weight Given s/c.
Pharmacokinetic studies of VN/65-4 and VN/66-1 were measured in mice and were compared to VN/14-1 and VN/50A-1. Mice were dosed s.c. at 10 mg/kg using a vehicle, 45% β-cyclodextrin in water, and plasma levels were measured by HPLC. […] The results are summarized in Table 3 below and the profiles in FIG. 18.

[2] = 1 nM [3H]ATRA, competitor 1 nM to 500 nM
[3] = mice, 10 mg/kg s.c., average of two animals

| SMILES | binding to RARα (RARα) | binding to RARγ (RARγ) | binding to RAR (third subtype) (RAR ?) | time to complete elimination from plasma ([1]; after administration to mice, FIG. 18) [h] | IC50 (RARα; [2]) [nM] | IC50 (RARγ; [2]) [nM] | IC50 (RAR ?; [2]) [nM] | AUC [1, 3] [μ/ml min] | Cmax [1, 3] [ng/mL] | Tmax [1, 3] [min] | t1/2 [1, 3] [min] | Cmax ([1]; Balb/c, mouse, plasma, sc, mice, 10 mg/kg s.c., average of two animals, read-out: Cmax) [ng/mL] |
| --- | --- | --- | --- | --- | --- | --- | --- | --- | --- | --- | --- | --- |
| CC(C=CC1=C(C)C(n2ccnc2)CCC1(C)C)=CC=CC(C)=CC(=O)n1ccnc1 (stereo not drawn) [VN/50A-1] | did not bind | did not bind | did not bind | ≤ 3 |  |  |  |  |  |  |  |  |
| CC1=C(/C=C/C(C)=C/C=C/C(C)=C/C(=O)O)C(C)(C)CCC1n1ccnc1 (racemic) [VN/14-1, (±)-4-(1H-imidazole-1-yl)retinoic acid] |  |  |  |  | ~16 | ~16 | ~200 | 567.80 | 5020 | 30 | 68.4 |  |
| CC(C=CC1=C(C)C(n2ccnc2)CCC1(C)C)=CC=CC(C)=CC(=O)Nc1ccc(O)cc1 (racemic) [VN/66-1, (±)-4-(1H-imidazol-1-yl), N-(4′-hydroxyphenyl)retinamide] | did not bind | did not bind | did not bind |  |  |  |  |  |  |  |  | 16000 |
